Laboratory results: the supplement of paper PMC11208160

assay: recombinant UMI read abundance after kanamycin selection (control-corrected) (log10(CPM+1)); higher = more efficient recombination; extreme values may be limits of the assay; sequences stand for … in AGTGCAGAGAAAATCGGCCAGTTTTCTCTGCCTGCAGTCCGCATGCCGTGGGACCCCTTGGGTTCTAACCTGTTGCCTAGATTTATGCAGCGGACTGCCTTTCTCCCAAAGTGATAAACCGG…AGGTTGGTTTCACT; site = the 11-nt donor
Protocol: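 Pooled E. coli donor-specificity screen for the IS621 bridge recombinase. Each library member carries a reprogrammed 11-nt donor and a full-length LE bridge RNA expressed in cis from the natural promoter, with a paired donor-binding loop (8-nt LDG + 4-nt RDG) and a target-binding loop fixed to T5. It is co-electroporated with a T5 target plasmid; recombinase is induced with 0.07 mM IPTG and recombinants are selected on kanamycin. UMIs are counted as CPM, averaged over two biological replicates and corrected by the unselected control. Molecule = full bridge RNA written as DNA, built from the T5 scaffold: LDG = donor specificity nt 1-8, RDG = reverse complement of nt 8-11.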
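Note: IS621 bridge recombinase in Escherichia coli cells against a fixed T5 target plasmid.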

Row | Sequence | recombinant UMI read abundance (log10)
1 | AATTATGCATGGACCGGTTTTCCCGGTAATCCGTATTTGGA (site AGTTATGCTTC) | 1.09
2 | AATTATGCATGGACCGGTTTTCCCGGTAATCCGTATTTGGA (site ATTTATGCTTC) | 1.25
3 | AATTATGCATGGACCGGTTTTCCCGGTAATCCGTATTTGGA (site CATTATGCTTC) | 1.51
4 | AATTATGCATGGACCGGTTTTCCCGGTAATCCGTATTTGGA (site GATTATGCTTC) | 0.983
5 | AATTATGCATGGACCGGTTTTCCCGGTAATCCGTATTTGGA (site TATTATGCTTC) | 0.862
6 | AATTATGCATGGACCGGTTTTCCCGGTAATCCGTATTTGGT (site AATTATGCTAC) | 2.02
7 | AATTATGCATGGACCGGTTTTCCCGGTAATCCGTATTTGGT (site AATTATGCTCC) | 0.00684
8 | AATTATGCATGGACCGGTTTTCCCGGTAATCCGTATTTGGT (site AATTATGCTGC) | 0
9 | AATTATGCATGGACCGGTTTTCCCGGTAATCCGTATTTGGT (site AATTATGCTTC) | 0.0116
10 | AATTGCTCATGGACCGGTTTTCCCGGTAATCCGTATTTGCC (site AATTGCTCTGG) | 2.51
11 | AATTGGGCATGGACCGGTTTTCCCGGTAATCCGTATTTGAA (site AATTGGGCTTT) | 0.399
12 | AATTTGTCATGGACCGGTTTTCCCGGTAATCCGTATTTGAC (site AATATGTCTGT) | 0
13 | AATTTGTCATGGACCGGTTTTCCCGGTAATCCGTATTTGAC (site AATCTGTCTGT) | 0
14 | AATTTGTCATGGACCGGTTTTCCCGGTAATCCGTATTTGAC (site AATGTGTCTGT) | 0
15 | AATTTGTCATGGACCGGTTTTCCCGGTAATCCGTATTTGAC (site AATTTGTCTGT) | 0
16 | ACAAAATCATGGACCGGTTTTCCCGGTAATCCGTATTTGCA (site ACAAAATCTTG) | 1.3
17 | ACAAAATCATGGACCGGTTTTCCCGGTAATCCGTATTTGCA (site ACAGTATCTTG) | 1.45
18 | ACAAAGGCATGGACCGGTTTTCCCGGTAATCCGTATTTGCT (site AAAAAGGCTAG) | 0
19 | ACAAAGGCATGGACCGGTTTTCCCGGTAATCCGTATTTGCT (site ACAAAGGCTAG) | 2.57
20 | ACAAAGGCATGGACCGGTTTTCCCGGTAATCCGTATTTGCT (site AGAAAGGCTAG) | 0
21 | ACAAAGGCATGGACCGGTTTTCCCGGTAATCCGTATTTGCT (site ATAAAGGCTAG) | 1.17
22 | ACAACTACATGGACCGGTTTTCCCGGTAATCCGTATTTGTG (site ACAACTACTCA) | 0.844
23 | ACAACTACATGGACCGGTTTTCCCGGTAATCCGTATTTGTG (site ACACCTACTCA) | 0.0441
24 | ACAACTACATGGACCGGTTTTCCCGGTAATCCGTATTTGTG (site ACAGCTACTCA) | 0.0923

Row | Sequence | recombinant UMI read abundance (log10)
25 | ACAACTACATGGACCGGTTTTCCCGGTAATCCGTATTTGTG (site ACATCTACTCA) | 0.146
26 | ACAAGAACATGGACCGGTTTTCCCGGTAATCCGTATTTGAG (site ACAAGAACTCT) | 2.72
27 | ACAAGAACATGGACCGGTTTTCCCGGTAATCCGTATTTGAG (site ACCAGAACTCT) | 0.645
28 | ACAAGAACATGGACCGGTTTTCCCGGTAATCCGTATTTGAG (site ACGAGAACTCT) | 1.41
29 | ACAAGAACATGGACCGGTTTTCCCGGTAATCCGTATTTGAG (site ACTAGAACTCT) | 0.755
30 | ACAAGGCCATGGACCGGTTTTCCCGGTAATCCGTATTTGAC (site AAAAGGCCTGT) | 0
31 | ACAAGGCCATGGACCGGTTTTCCCGGTAATCCGTATTTGAC (site ACAAGGCCTGT) | 0.512
32 | ACAAGGCCATGGACCGGTTTTCCCGGTAATCCGTATTTGAC (site AGAAGGCCTGT) | 0
33 | ACAAGGCCATGGACCGGTTTTCCCGGTAATCCGTATTTGAC (site ATAAGGCCTGT) | 1.34
34 | ACAAGTGCATGGACCGGTTTTCCCGGTAATCCGTATTTGGT (site ACAAGTGCTAC) | 2.04
35 | ACAAGTGCATGGACCGGTTTTCCCGGTAATCCGTATTTGGT (site ACCAGTGCTAC) | 0.897
36 | ACAAGTGCATGGACCGGTTTTCCCGGTAATCCGTATTTGGT (site ACGAGTGCTAC) | 1.09
37 | ACAAGTGCATGGACCGGTTTTCCCGGTAATCCGTATTTGGT (site ACTAGTGCTAC) | 1.16
38 | ACAATATCATGGACCGGTTTTCCCGGTAATCCGTATTTGCT (site ACAATATCTAG) | 2.64
39 | ACAATATCATGGACCGGTTTTCCCGGTAATCCGTATTTGCT (site ACAGTATCTTG) | 0.278
40 | ACAATGGCATGGACCGGTTTTCCCGGTAATCCGTATTTGAT (site ACAATGGCTAT) | 2.3
41 | ACACAGCCATGGACCGGTTTTCCCGGTAATCCGTATTTGAC (site ACACAACCTGT) | 0
42 | ACACAGCCATGGACCGGTTTTCCCGGTAATCCGTATTTGAC (site ACACACCCTGT) | 1.68
43 | ACACAGCCATGGACCGGTTTTCCCGGTAATCCGTATTTGAC (site ACACAGCCTGT) | 1.05
44 | ACACAGCCATGGACCGGTTTTCCCGGTAATCCGTATTTGAC (site ACACATCCTGT) | 0.0116
45 | ACACAGCCATGGACCGGTTTTCCCGGTAATCCGTATTTGTG (site ACACAGCCTCA) | 0.606
46 | ACACCAACATGGACCGGTTTTCCCGGTAATCCGTATTTGTC (site ACACAAACTGA) | 0
47 | ACACCAACATGGACCGGTTTTCCCGGTAATCCGTATTTGTC (site ACACCAACTGA) | 1.62
48 | ACACCAACATGGACCGGTTTTCCCGGTAATCCGTATTTGTC (site ACACGAACTGA) | 0

Row | Sequence | recombinant UMI read abundance (log10)
49 | ACACCAACATGGACCGGTTTTCCCGGTAATCCGTATTTGTC (site ACACTAACTGA) | 0
50 | ACACCACCATGGACCGGTTTTCCCGGTAATCCGTATTTGAT (site ACACCACCTAT) | 0.00417
51 | ACACCTCCATGGACCGGTTTTCCCGGTAATCCGTATTTGAC (site ACACATCCTGT) | 0
52 | ACACCTCCATGGACCGGTTTTCCCGGTAATCCGTATTTGAC (site ACACCTCCTGT) | 1.93
53 | ACACCTCCATGGACCGGTTTTCCCGGTAATCCGTATTTGAC (site ACACGTCCTGT) | 0
54 | ACACCTCCATGGACCGGTTTTCCCGGTAATCCGTATTTGAC (site ACACTTCCTGT) | 0
55 | ACACGAACATGGACCGGTTTTCCCGGTAATCCGTATTTGAC (site ACACGAACTGA) | 1.64
56 | ACACGAACATGGACCGGTTTTCCCGGTAATCCGTATTTGAC (site ACACGAACTGC) | 0
57 | ACACGAACATGGACCGGTTTTCCCGGTAATCCGTATTTGAC (site ACACGAACTGG) | 1.33
58 | ACACGAACATGGACCGGTTTTCCCGGTAATCCGTATTTGAC (site ACACGAACTGT) | 2.62
59 | ACACGAACATGGACCGGTTTTCCCGGTAATCCGTATTTGTG (site ACACGAACTAA) | 0.269
60 | ACACGAACATGGACCGGTTTTCCCGGTAATCCGTATTTGTG (site ACACGAACTCA) | 1.91
61 | ACACGAACATGGACCGGTTTTCCCGGTAATCCGTATTTGTG (site ACACGAACTGA) | 0
62 | ACACGAACATGGACCGGTTTTCCCGGTAATCCGTATTTGTG (site ACACGAACTTA) | 0.766
63 | ACACGACCATGGACCGGTTTTCCCGGTAATCCGTATTTGTC (site ACACGAACTGA) | 0.0114
64 | ACACGACCATGGACCGGTTTTCCCGGTAATCCGTATTTGTC (site ACACGACCTGA) | 0
65 | ACACGACCATGGACCGGTTTTCCCGGTAATCCGTATTTGTC (site ACACGAGCTGA) | 0
66 | ACACGACCATGGACCGGTTTTCCCGGTAATCCGTATTTGTC (site ACACGATCTGA) | 1.22
67 | ACACGCACATGGACCGGTTTTCCCGGTAATCCGTATTTGTC (site ACACGAACTGA) | 1.62
68 | ACACGCACATGGACCGGTTTTCCCGGTAATCCGTATTTGTC (site ACACGCACTGA) | 2.85
69 | ACACGCACATGGACCGGTTTTCCCGGTAATCCGTATTTGTC (site ACACGGACTGA) | 0
70 | ACACGCACATGGACCGGTTTTCCCGGTAATCCGTATTTGTC (site ACACGTACTGA) | 0.934
71 | ACACGGACATGGACCGGTTTTCCCGGTAATCCGTATTTGTC (site ACACGAACTGA) | 0
72 | ACACGGACATGGACCGGTTTTCCCGGTAATCCGTATTTGTC (site ACACGCACTGA) | 0
